{"source": "patent US9585861B1", "about": "“Method for treating a cancer with a mixed ligand gold(III) complexes as anti-cancer agents” (KING FAHD UNIVERSITY OF PETROLEUM AND MINERALS, priority 2015, dated 2017)", "key": {"[1]": {"system": "human gastric SGC7901 cancer cells", "assay": "MTT assay, in vitro cytotoxicity / cell growth inhibition on SGC7901 cells", "format": "cell-based", "settings": "for time dependent antiproliferative effect: 10 μM, 24 h and 72 h; for IC50: 72 h exposure, MTT", "method": "(§1) Human gastric SGC7901 cancer and prostate PC3 cancer cell lines were provided by American Type Culture Collection (ATCC). Cells were cultured in Dulbecco's Modified Eagle Medium (DMEM) supplemented with 10% fetal calf serum (FCS), penicillin (100 kU L^−1) and streptomycin (0.1 g L^−1) at 37° C. in a 5% CO2-95% air atmosphere. MTT (3-(4,5-Dimethylthiazol-2-yl)-2,5-diphenyltetrazolium bromide, a yellow tetrazole) was purchased from Sigma Chemical Co, St. Louis, Mo., USA.\n(§2) An MTT assay was used to obtain the number of living cells in the sample. Human gastric cancer SGC7901 and prostate cancer PC3 cells were seeded on 96-well plates at a predetermined optimal cell density, i.e. ca 6000 cells/100 μL per well in 96-well plates, to ensure exponential growth in the duration of the assay. After 24 h pre-incubation, the growth medium was replaced with the experimental medium containing the appropriate drug, using one of 1,2-diaminocyclohexane(1,3-propylenediamine)gold(III) chloride compounds 1, 2 and 3 or a control using water. Six duplicate wells were set up for each sample, and cells untreated with drug served as a control. In one set of culture plates, human gastric cancer SGC7901 and human prostate PC3 cells were treated with 10 μM compounds 1, 2 and 3 as the drug and the control (water) for 24, 48 and 72 h. In other sets, the compounds 1, 2 and 3 with different concentration, i.e. 10, 20 and 30 μM, were employed to determine the growth inhibitory effect for both PC3 and SGC7901 cells separately. After incubation, 10 μL MTT (6 g/L, Sigma) was added to each well and the incubation was continued for 4 h at 37° C. After removal of the medium, MTT stabilization solution [dimethylsulfoxide (DMSO):ethanol=1:1] was added to each well, and shaken for 10 min until all crystals were dissolved. Then, the optical density was detected in a micro plate reader at 550 nm wavelength using an Enzyme-Linked Immuno-Sorbent Assay (ELISA) reader. After being treated with the 1,2-diaminocyclohexane(1,3-propylenediamine)gold(III) chloride compounds 1, 2 and 3, the cell viability was examined by MTT assay. Each assay was performed in triplicate. […] These cells were treated with various concentrations of compounds 1, 2 and 3 for 24-72 h.\n(§3) Human gastric SGC7901 cells and prostate PC3 cells were incubated with these compounds at fixed concentrations or with water as a control to assess the inhibitory effect on cell growth. […] The cell survival versus drug concentration is plotted. Cytotoxicity was evaluated in vitro with reference to the IC50 value. The half maximal inhibitory concentration (IC50) is a measure of the effectiveness of a compound to inhibit biological or biochemical functions. According to the FDA, IC50 represents the concentration of a drug/compound/complex that is required for 50% inhibition in vitro. It is evaluated from the survival curves as the concentration needed for a 50% reduction of survival. IC50 values are expressed in μM.\n(§4) The in vitro cytotoxic effect of mixed ligand gold(III) diamine complexes against androgen-resistant prostate PC3 and human gastric SGC7901 cancer cells were studied using MTT assay. […] For that reason, we used different concentrations and a 3-day exposure protocol to determine the IC50 values for all three complexes. The in vitro cytotoxicity in terms of IC50 values of cisplatin for PC3 and SGC7901 cells was included for a comparison."}, "[2]": {"assay": "Cyclic voltammetry in reference phosphate buffer", "format": "physicochemical", "settings": "1.0 mM, phosphate buffer pH 7.4, platinum electrode, 50 mV/s, room temperature", "method": "The electrochemical experiments performed at room temperature using a potentiostat (SP-300, BioLogic Science Instruments) controlled by EC-Lab v10.34 software package. The electrochemical experiments were performed at room temperature. All the measurements were performed on solutions deaerated by bubbling ultra-pure nitrogen for 15 min. The values of potential here reported were measured against a saturated calomel electrode (SCE). The cyclic voltammetry of the compounds 1, 2 and 3 were measured at scan rate of 50 mV/s on a reference buffer (40 mM phosphate, 4 mM NaCl, pH 7.4) using platinum as working electrode and graphite as a counter electrode with a concentration of 1.0 mM at room temperature. Ferrocene was used as pseudo reference to calibrate the working electrode. The couple Fe^III/II formal potential of ferrocene occur at E°′=+0.44 V (vs SCE) in 0.1 M Bu4NPF6 solution in acetonitrile which is similar to the report value under the same experimental condition [Hans J, Beckmann A, Krüger H J (1999) Eur. J. Inorg. Chem. 163-172—incorporated herein by reference in its entirety]. Conversion to values vs NHE was obtained upon adding +0.24 V to the corresponding SCE values.\nThe electrochemical behavior of compounds 1, 2 and 3 was investigated in a physiological environment through cyclic voltammetry (CV). […] Gold(III) complexes 1, 2 and 3 show one irreversible reduction process in which the controlled potential coulometry involves three electrons per mole. The occurrence of Au(III)/Au(O) reduction is visually indicated by the appearance of a thin gold layer deposited on the platinum electrode surface after exhaustive electrolysis (Ew, −0.7 V)."}, "[3]": {"system": "human prostate PC3 cancer cells", "assay": "MTT assay, in vitro cytotoxicity / cell growth inhibition on PC3 cells", "format": "cell-based", "settings": "for time dependent antiproliferative effect: 10 μM, 24 h and 72 h; for IC50: 72 h exposure, MTT", "method": "as §1, §2, §3, §4"}, "[4]": {"assay": "NMR stability in D2O and mixed DMSO-d6/D2O", "format": "physicochemical", "settings": "DMSO-d6/D2O (v/v 2/1), room temperature, after 7 days", "method": "Compounds 1, 2 and 3 were tested for their stability in water as well as mixed solvents of DMSO/water (2/1 v/v ratio) solution by ^13C and ^1H NMR. […] The hydroscopic nature of DMSO could unfortunately lead to stability issue [Ellson R, Stearns R, Mutz M, Brown C, Browning B, Harris D, Qureshi S. Shieh J, Wold D (2005) Comb. Chem. High Throughput Screen, 8:489-498—incorporated herein by reference in its entirety]. To investigate the structural stability of the compounds, NMR spectra of the compounds dissolved in D2O and mixed DMSO-d6/D2O (v/v: 2/1) solvents were obtained on immediate dissolution and latter at 24 h and after three days 72 h at room temperature in mixed DMSO-d6/D2O and at 37° C. in D2O . A minimum of 30 mg/mL of representative gold(III) compounds 1, 2 and 3 were subjected to ^1H and ^13C NMR spectra analysis followed by dissolution in D2O and DMSO-d6/D2O (v/v: 2/1, 1 mL). The duplicate samples were dissolved and immediately stored at room temperature and 37° C., respectively, and followed by determination of stability through NMR measurements for compounds 1, 2 and 3 overtime periods of 24 h and 72 h.\nThe NMR spectra of the complexes were obtained upon immediate dissolution to serve as reference spectra and later at 24 h and after 7 days at 37° C. in D2O and at room temperature in mixed DMSO-d6/D2O in order to determine their stability. […]"}, "[5]": {"settings": "read-out: IC50 (concentration of sample required to reduce the cell growth of tumor cell line by 50%)"}, "[6]": {"settings": "listed as complex 1, read-out: IC50 (concentration of sample required to reduce the cell growth of tumor cell line by 50%)"}, "[7]": {"settings": "listed as complex 3, read-out: IC50 (concentration of sample required to reduce the cell growth of tumor cell line by 50%)"}}, "note": "Like-named read-outs stand apart in the source and are kept apart here.", "data": [{"smiles": "NC1CCCCC1N.NCCCN.[Au+3].[Cl-].[Cl-].[Cl-]", "note": "(racemic) [Complex 2, trans-(±)-1,2-diaminocyclohexane(1,3-propylenediamine)gold(III) chloride]", "values": [{"measurement": "time dependent antiproliferative effect", "setting": "[1]", "value": "complex 3>complex 2>complex 1"}, {"measurement": "IC50", "setting": "[1]; [5]", "value": 10.9, "unit": "µM"}, {"measurement": "Peak potential Ep vs. NHE for reduction", "setting": "[2]", "value": 0.25, "unit": "V"}, {"measurement": "time dependent antiproliferative effect", "setting": "[3]", "value": "complex 3>complex 2>complex 1"}, {"measurement": "IC50", "setting": "[3]; [5]", "value": 10.2, "unit": "µM"}]}, {"smiles": "N.N.[Cl][Pt][Cl]", "note": "[Cisplatin, reference compound]", "values": [{"measurement": "IC50", "setting": "[1]; [5]", "value": 7.3, "unit": "µM"}, {"measurement": "IC50", "setting": "[3]; [5]", "value": 1.1, "unit": "µM"}]}, {"smiles": "NC1CCCCC1N.NCCCN.[Au+3].[Cl-].[Cl-].[Cl-]", "note": "(stereo not drawn) [Complex 1, cis-1,2-diaminocyclohexane(1,3-propylenediamine)gold(III) chloride]", "values": [{"measurement": "time dependent antiproliferative effect", "setting": "[1]; listed as complex 1", "value": "complex 3>complex 2>complex 1"}, {"measurement": "IC50", "setting": "[1]; [6]", "value": 10.8, "unit": "µM"}, {"measurement": "Peak potential Ep vs. NHE for reduction", "setting": "[2]; listed as 1", "value": 0.34, "unit": "V"}, {"measurement": "concentration dependent cell growth inhibition", "setting": "[3]; 10 μM and 20 μM, 24 h", "value": "much better cell inhibition against PC3 cancer cell than complexes 3 and 2"}, {"measurement": "time dependent antiproliferative effect", "setting": "[3]; listed as complex 1", "value": "complex 3>complex 2>complex 1"}, {"measurement": "IC50", "setting": "[3]; [6]", "value": 9.5, "unit": "µM"}]}, {"smiles": "NC1CCCCC1N.NCCCN.[Au+3].[Cl-].[Cl-].[Cl-]", "note": "[Complex 3, (S,S)-(+)-1,2-diaminocyclohexane(1,3-propylenediamine)gold(III) chloride]", "values": [{"measurement": "dissociation of 1,3-propylenediamine", "setting": "[4]", "value": "approximately 50%"}, {"measurement": "time dependent antiproliferative effect", "setting": "[1]", "value": "better cell inhibition against both PC3 and SGC7901 cell lines than complexes 1 and 2"}, {"measurement": "time dependent antiproliferative effect", "setting": "[1]; listed as complex 3", "value": "complex 3>complex 2>complex 1"}, {"measurement": "IC50", "setting": "[1]; [7]", "value": 10.1, "unit": "µM"}, {"measurement": "Peak potential Ep vs. NHE for reduction", "setting": "[2]; listed as 3", "value": 0.24, "unit": "V"}, {"measurement": "time dependent antiproliferative effect", "setting": "[3]", "value": "better cell inhibition against both PC3 and SGC7901 cell lines than complexes 1 and 2"}, {"measurement": "time dependent antiproliferative effect", "setting": "[3]; listed as complex 3", "value": "complex 3>complex 2>complex 1"}, {"measurement": "IC50", "setting": "[3]; [7]", "value": 9.1, "unit": "µM"}]}]}
